# Results as given in patent publication US20250313533A1, “QUINOLINE CARBOXYLIC ACID ESTER COMPOUND AND PREPARATION METHOD AND USE THEREOF” (priority 2019, published 2025).
# What was measured:
# [1] = tested on: pathogenic bacteria causing black shank in potatoes; assay: In vitro bactericidal activity, black shank in potatoes; type: cell-based; details: read-out: inhibitory rate; for inhibition at 1 ppm: dosage 1 ppm; for inhibition at 5 ppm: dosage 5 ppm
# black shank in potatoes = assay: Living crops in vivo protective activity, potatoes (root irrigation); details: Solanum tuberosum, read-out: efficacy against black shank in potatoes; for pest or weed control at 5 ppm: dosage 5 ppm; for pest or weed control at 10 ppm: dosage 10 ppm
# Experimental: Root irrigation was carried out on the potatoes for tests according to the designed concentration of the agents. The dosage for each plant was 200 mL and was kept consistent (also for the control). The black shank bacteria were inoculated on the second day after the application. The results were investigated according to the disease condition.
# [2] = tested on: pathogenic bacteria causing bacterial blight in rice; assay: whole plant or invertebrate; type: cell-based, xanthomonas; details: read-out: inhibitory rate
# [3] = tested on: indoor potted cucumber seedlings; assay: Effect of improving growth and development of crops; type: in vivo; parameters: Rate of growth rate increase (%): concentration or dose not given beside the values; details: versus blank control; for Rate of chlorophyll content increase (%) / Rate of leaf area increase (%): 14 days after application; for Rate of growth rate increase (%): plant height 14 days after application; for Rate of leaf area increase (%): second leaf
# In short: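 Before treatment, plant height and the second leaf's length and width are recorded. After 14 days these are repeated, chlorophyll is read by meter, and percentage increases in growth rate, leaf area and chlorophyll are computed.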
# [4] = tested on: stem rot in sweet potatoes; assay: whole plant or invertebrate; details: read-out: efficacy against stem rot in sweet potatoes
# [5] = tested on: pathogenic bacteria causing black rot in Chinese cabbages; assay: In vitro bactericidal activity, black rot in Chinese cabbages; type: cell-based, xanthomonas; details: Xanthomonas, read-out: inhibitory rate; for inhibition at 1 ppm: dosage 1 ppm; for inhibition at 5 ppm: dosage 5 ppm
# [6] = tested on: fruit blotch in watermelons; assay: whole plant or invertebrate; details: read-out: efficacy against fruit blotch in watermelons
# [7] = tested on: soft rot in Chinese cabbages; assay: whole plant or invertebrate; details: 48 h, read-out: efficacy against soft rot in Chinese cabbages
# [8] = tested on: pathogenic bacteria causing bacterial angular leaf spot in cucumbers; assay: In vitro bactericidal activity, bacterial angular leaf spot in cucumbers; type: cell-based, pseudomonas; details: read-out: inhibitory rate; for inhibition at 1 ppm: dosage 1 ppm; for inhibition at 5 ppm: dosage 5 ppm
# [9] = tested on: pathogenic bacteria causing bacterial wilt in tobacco; assay: whole plant or invertebrate; type: cell-based, ralstonia; details: read-out: inhibitory rate
# cucumber seedlings = assay: Safety for plant growth after application; type: in vivo; details: dosage 200 ppm
# In short: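 Potted cucumber seedlings grown indoors; read-outs: plant-height growth rate, chlorophyll content, leaf area.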
# [10] = tested on: bacterial wilt in tobacco; assay: whole plant or invertebrate; details: Nicotiana tabacum, read-out: efficacy against bacterial wilt in tobacco
# [11] = tested on: pathogenic bacteria causing fruit blotch in watermelons; assay: In vitro bactericidal activity, fruit blotch in watermelons; type: cell-based, acidovorax; details: read-out: inhibitory rate; for inhibition at 1 ppm: dosage 1 ppm; for inhibition at 5 ppm: dosage 5 ppm
# [12] = tested on: pathogenic bacteria causing fire blight in pears; assay: In vitro bactericidal activity, fire blight in pears; type: cell-based, erwinia; details: Erwinia, read-out: inhibitory rate; for inhibition at 1 ppm: dosage 1 ppm; for inhibition at 5 ppm: dosage 5 ppm
# bacterial blight in rice = assay: whole plant or invertebrate; details: Oryza sativa, read-out: efficacy against bacterial blight in rice
# [13] = tested on: pathogenic bacteria causing bacterial wilt in cassava; assay: organism not typed; type: cell-based; details: read-out: inhibitory rate
# [14] = tested on: pathogenic bacteria causing stem rot in sweet potatoes; assay: In vitro bactericidal activity, stem rot in sweet potatoes; type: cell-based, dikia; details: read-out: inhibitory rate; for inhibition at 1 ppm: dosage 1 ppm; for inhibition at 5 ppm: dosage 5 ppm
SMILES,inhibition at 1 ppm [1] [%],inhibition at 5 ppm [1] [%],pest or weed control at 5 ppm (black shank in potatoes) [%],pest or weed control at 10 ppm (black shank in potatoes) [%],inhibition at 1 ppm [2] [%],inhibition at 5 ppm [2] [%],Rate of chlorophyll content increase (%) [3] [%],Rate of growth rate increase (%) [3] [%],Rate of leaf area increase (%) [3] [%],pest or weed control at 5 ppm [4] [%],pest or weed control at 10 ppm [4] [%],inhibition at 1 ppm [5] [%],inhibition at 5 ppm [5] [%],pest or weed control at 5 ppm [6] [%],pest or weed control at 10 ppm [6] [%],pest or weed control at 5 ppm [7] [%],pest or weed control at 10 ppm [7] [%],inhibition at 1 ppm [8] [%],inhibition at 5 ppm [8] [%],inhibition at 1 ppm [9] [%],further results
CCOc1cc2c(cc1F)c(=O)c(C(=O)OCCOC1CCCC1)cn2C1CC1 [Compound 307],≥ 90,≥ 90,≥ 90,≥ 90,≥ 90,≥ 90,11,9,12,≥ 90,≥ 90,≥ 90,≥ 90,≥ 90,≥ 90,≥ 90,≥ 90,≥ 90,≥ 90,≥ 90,"inhibition at 5 ppm [9]: ≥ 90%; safety for plant growth (discoloration, necrosis, wilt, malformation) (cucumber seedlings): safe for plant growth; pest or weed control at 5 ppm [10]: ≥ 90%; pest or weed control at 10 ppm [10]: ≥ 90%; inhibition at 1 ppm [11]: ≥ 90%; inhibition at 5 ppm [11]: ≥ 90%; inhibition at 1 ppm [12]: ≥ 90%; inhibition at 5 ppm [12]: ≥ 90%; pest or weed control at 5 ppm (bacterial blight in rice): ≥ 90%; pest or weed control at 10 ppm (bacterial blight in rice): ≥ 90%; inhibition at 1 ppm [13]: ≥ 90%; inhibition at 5 ppm [13]: ≥ 90%; inhibition at 1 ppm [14]: ≥ 90%; inhibition at 5 ppm [14]: ≥ 90%"
CCOc1cc2c(cc1F)c(=O)c(C(=O)OCCCO)cn2C1CC1 [Compound 309],≥ 90,≥ 90,≥ 90,≥ 90,≥ 90,≥ 90,16,12,15,≥ 90,≥ 90,≥ 90,≥ 90,≥ 90,≥ 90,≥ 90,≥ 90,≥ 90,≥ 90,≥ 90,"inhibition at 5 ppm [9]: ≥ 90%; safety for plant growth (discoloration, necrosis, wilt, malformation) (cucumber seedlings): safe for plant growth; pest or weed control at 5 ppm [10]: ≥ 90%; pest or weed control at 10 ppm [10]: ≥ 90%; inhibition at 1 ppm [11]: ≥ 90%; inhibition at 5 ppm [11]: ≥ 90%; inhibition at 1 ppm [12]: ≥ 90%; inhibition at 5 ppm [12]: ≥ 90%; pest or weed control at 5 ppm (bacterial blight in rice): ≥ 90%; pest or weed control at 10 ppm (bacterial blight in rice): ≥ 90%; inhibition at 1 ppm [13]: ≥ 90%; inhibition at 5 ppm [13]: ≥ 90%; inhibition at 1 ppm [14]: ≥ 90%; inhibition at 5 ppm [14]: ≥ 90%"
CCOc1cc2c(cc1F)c(=O)c(C(=O)OCCCOC)cn2C1CC1 [Compound 315],≥ 90,≥ 90,≥ 90,≥ 90,≥ 90,≥ 90,12,9,11,≥ 90,≥ 90,≥ 90,≥ 90,≥ 90,≥ 90,≥ 90,≥ 90,≥ 90,≥ 90,≥ 90,"inhibition at 5 ppm [9]: ≥ 90%; safety for plant growth (discoloration, necrosis, wilt, malformation) (cucumber seedlings): safe for plant growth; pest or weed control at 5 ppm [10]: ≥ 90%; pest or weed control at 10 ppm [10]: ≥ 90%; inhibition at 1 ppm [11]: ≥ 90%; inhibition at 5 ppm [11]: ≥ 90%; inhibition at 1 ppm [12]: ≥ 90%; inhibition at 5 ppm [12]: ≥ 90%; pest or weed control at 5 ppm (bacterial blight in rice): ≥ 90%; pest or weed control at 10 ppm (bacterial blight in rice): ≥ 90%; inhibition at 1 ppm [13]: ≥ 90%; inhibition at 5 ppm [13]: ≥ 90%; inhibition at 1 ppm [14]: ≥ 90%; inhibition at 5 ppm [14]: ≥ 90%"
COc1cc2c(cc1F)c(=O)c(C(=O)OCCCO)cn2C1CC1 [Compound 320],≥ 90,≥ 90,≥ 90,≥ 90,≥ 90,≥ 90,16,14,9,≥ 90,≥ 90,≥ 90,≥ 90,≥ 90,≥ 90,≥ 90,≥ 90,≥ 90,≥ 90,≥ 90,"inhibition at 5 ppm [9]: ≥ 90%; safety for plant growth (discoloration, necrosis, wilt, malformation) (cucumber seedlings): safe for plant growth; pest or weed control at 5 ppm [10]: ≥ 90%; pest or weed control at 10 ppm [10]: ≥ 90%; inhibition at 1 ppm [11]: ≥ 90%; inhibition at 5 ppm [11]: ≥ 90%; inhibition at 1 ppm [12]: ≥ 90%; inhibition at 5 ppm [12]: ≥ 90%; pest or weed control at 5 ppm (bacterial blight in rice): ≥ 90%; pest or weed control at 10 ppm (bacterial blight in rice): ≥ 90%; inhibition at 1 ppm [13]: ≥ 90%; inhibition at 5 ppm [13]: ≥ 90%; inhibition at 1 ppm [14]: ≥ 90%; inhibition at 5 ppm [14]: ≥ 90%"
